pIC50: −log10 of the molar value. Where “and” joins values, the source holds several entries; their conditions need not be identical. Equal entries are not always repeated.
Key:
[1] = target: T1, LIN28A(16–187)–let-7 interaction (Homo sapiens, UniProt Q9H9Z2); assay: Electrophoretic mobility shift assay (EMSA), disruption of LIN28–let-7 complex; type: binding; conditions: for pIC50: concentration-dependent EMSA, some values estimated, read-out: IC50 in dose–response EMSA; for inhibition at 75 µM: single concentration of 75 μM, read-out: inhibition of the LIN28–let-7 interaction measured in EMSA
T1 construct: LIN28A(16–187) or LIN28B(24–111); pET19a or pMAL vector) (cleaved yes); made in house; host or cells: Escherichia coli BL21(DE3)
T1 sequence (Q9H9Z2 16-187): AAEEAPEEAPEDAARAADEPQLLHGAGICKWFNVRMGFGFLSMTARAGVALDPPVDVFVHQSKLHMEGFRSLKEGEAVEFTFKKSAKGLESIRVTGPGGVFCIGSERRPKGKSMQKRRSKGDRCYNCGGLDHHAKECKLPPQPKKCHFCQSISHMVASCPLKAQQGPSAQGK
Experimental: (§1) Inhibition of the LIN28–let-7 complex was evaluated by electrophoretic mobility shift assays. Mixtures containing compound at indicated concentrations, LIN28A(16–187) or LIN28B(24–111), and recombinant ribonuclease inhibitor (TaKaRa Bio) were incubated at room temperature for 2 h. The reaction buffer contained 50 mM TRIS, pH 7.5, 100 mM NaCl, 10 mM β-mercaptoethanol, 50 μM ZnCl2, 2% DMSO, 0.01% Tween-20 and 12% glycerol. Cy-3-fluorophore labeled RNA, (pre-E let-7f-1-Cy3, Mus musculus, […]-Cy3, purchased from IDT) was added to the reaction and incubated for further 15 min. The final concentrations were as follows: 10 nM LIN28A or 200 nM LIN28B, 5 nM RNA. Of each mixture, 10 μL was analyzed on a nondenaturing PAGE (5.3% acrylamide TAE PAGE for full-length LIN28 and 10% acrylamide TAE PAGE for analysis of the CSD) prerun for 1 h without sample and run for 1 h at 220 V at 4 °C in 0.25× TAE buffer. Gels were imaged using a ChemiDoc MP instrument (Bio-Rad Laboratories). Band intensities were analyzed using ImageJ and inhibition was quantified by calculation of the ratio of free RNA fluorescence to the fluorescence of the protein–RNA complex, and normalization to free RNA and LIN28–let-7 complex controls. The intensity ratio was analyzed by nonlinear regression fit in GraphPad Prism to determine the IC50 values.

[2] = target: T2, LIN28A (16-126) CSD protein (Homo sapiens, UniProt Q9H9Z2); assay: Nano differential scanning fluorimetry (nanoDSF) thermal shift; type: binding; conditions: compound at 75 μM
T2 construct: incubated with LIN28A (16-126) CSD protein; pET19a or pMAL vector) (cleaved yes); made in house; host or cells: Escherichia coli BL21(DE3)
T2 sequence (Q9H9Z2 16-126): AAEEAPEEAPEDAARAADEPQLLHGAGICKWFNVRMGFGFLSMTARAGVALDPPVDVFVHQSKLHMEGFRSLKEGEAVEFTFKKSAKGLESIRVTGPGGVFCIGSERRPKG
Experimental: (§2) Nano differential scanning fluorimetry (nanoDSF)
Compounds (final concentration 75 µM) were incubated with LIN28A (16-126) CSD protein
for 45 minutes at room temperature in a buffer containing 30 mM NaH2PO4, 50 mM NaCl and
1 mM MgCl2 at pH 8.0. Thermal protein stability was determined using NanoTemper
Prometheus NT.48 with a temperature ramp from 20 °C to 90 °C increasing the temperature by
1 °C per minute. Melting temperatures were determined using the software of the device. […]
(§3) Master Mix II, with UNG (A pplied Biosystems) and a CFX Connect Real -Time PCR System

LIN28B–let-7 interaction = target: T3, LIN28B–let-7 interaction (Homo sapiens, UniProt Q6ZN17); assay: EMSA with LIN28B; type: binding; conditions: Figure S3
T3 construct: residues 24–111 of the LIN28B cold shock domain; pET19a or pMAL vector) (cleaved yes); made in house; host or cells: Escherichia coli BL21(DE3)
T3 sequence (Q6ZN17 24-111): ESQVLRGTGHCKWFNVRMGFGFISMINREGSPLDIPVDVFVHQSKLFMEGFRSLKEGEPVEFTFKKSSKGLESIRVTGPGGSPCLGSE
Experimental: as §1

LIN28A CSD = target: T4, LIN28A CSD (Homo sapiens, UniProt Q9H9Z2); assay: Biolayer interferometry (BLI); type: binding
T4 construct: residues 16–126 of the LIN28A cold shock domain; pET19a or pMAL vector) (cleaved yes); made in house; host or cells: Escherichia coli BL21(DE3)
T4 sequence (Q9H9Z2 16-126): T2 sequence (Q9H9Z2 16-126)
Experimental: (§4) Biolayer Interferometry (BLI)
(§5) Recombinant LIN28A CSD was biotinylated with EZ-Link Sulfo NHS-LC-LC-Biotin (Thermo Fisher Scientific) following the manufacturer's guidelines with a labeling ratio of one biotin per protein. Free biotin reagent was removed during dialysis against buffer (20 mM HEPES pH 7.5, 150 mM NaCl, 1 mM MgCl2). After loading optimization, the protein was immobilized on SA biosensors (Sartorius). The association and dissociation of compounds were recorded in a buffer containing 20 mM HEPES pH 7.5, 150 mM NaCl, 1 mM MgCl2, 0.05 % Tween 20, 1 % DMSO and 0.3 mg/mL BSA. Data was measured and analyzed using an Octet Red384 instrument (Sartorius). Double referencing against samples without compound and sensors loaded with 10 µg/mL biocytin instead of protein was performed. […]
as §3

[3] = test system: mature let-7d and let-7i levels in JAR cells; assay: qPCR of mature let-7 miRNA levels in JAR cells; type: cell-based; conditions: 24 h
Experimental: as §2
Compounds (final concentration 75 µM) were incubated with LIN28A (16-126) CSD protein for 45 minutes at room temperature in a buffer containing 30 mM NaH2PO4, 50 mM NaCl and 1 mM MgCl2 at pH 8.0. Thermal protein stability was determined using NanoTemper Prometheus NT.48 with a temperature ramp from 20 °C to 90 °C increasing the temperature by 1 °C per minute. Melting temperatures were determined using the software of the device.
as §4
as §5, with “After loading optimization, the protein was immobilized on SA biosensors (Sartorius).” left out, “(Sartorius).” for “(Sartorius). Double referencing against samples without compound and sensors loaded with 10 µg/mL biocytin instead of protein was performed.”
For computational docking analysis of pyrrolinones 11S/R to the RNA binding site of LIN28A (PDB code: 5UDZ)1 Schrödinger® Maestro 12.3 was used. […] The glide dock module was used and the results were evaluated according to interactions between small molecules and LIN28A, small molecule orientations, docking scores and solvent exposure patterns. […]

Row | Structure (SMILES) | pIC50 [1] | inhibition at 75 µM [1] [%] | increase in thermal stability (melting temperature shift) of the LIN28 CSD [2] | inhibition of the LIN28B–let-7 interaction in EMSA (in words) (LIN28B–let-7 interaction) | direct binding to the LIN28 CSD in biolayer interferometry (in words) (LIN28A CSD) | effect on biogenesis of mature let-7i and let-7d miRNAs (in words) [3]
1 | Cn1nnc2cc(C3C(C(=O)c4ccccc4)=C(O)C(=O)N3c3ccc(O)c(C(=O)O)c3)ccc21 (stereo not drawn) [Compound 8] | < 4.12 and ~4.05 | 69.9 | less than 0.5 °C |  |  | 
2 | O=C(C1=C(O)C(=O)N(c2cccc(-c3ccccc3)c2)[C@@H]1c1ccc([N+](=O)[O-])cc1)c1ccccc1 [Compound 11R] | 4.62 |  | ~1.9 °C |  |  | 
3 | O=C(C1=C(O)C(=O)N(c2cccc(-c3ccccc3)c2)C1c1ccc([N+](=O)[O-])cc1)c1ccccc1 (stereo not drawn) [Compound 11] | 4.57 | 95 |  | concentration-dependent manner | concentration-dependent binding | concentration-dependent manner
4 | O=C(C1=C(O)C(=O)N(c2cccc(-c3ccccc3)c2)[C@H]1c1ccc([N+](=O)[O-])cc1)c1ccccc1 [Compound 11S] | 4.43 |  | ~1.9 °C |  |  | 
